Results as given in US11078496B2, “System for F-box hormone receptor regulated protein expression in mammalian cells” (ICAHN SCHOOL OF MEDICINE AT MOUNT SINAI, priority 2016, dated 2021).

Legend:
AID^47-CHK1 (A-CHK1) = biological target: T1, AID^47-CHK1 (A-CHK1) (UniProt P93830+Q7XVM8); test: Auxin-dependent depletion of A-CHK1 in mESCs (western blot); assay type: cell-based, mouse
T1 construct: (encoding NP_001052659); 47-amino acid segment that corresponds to amino acids 63-109 of A. thaliana IAA17; expressed in transfected cells; host or cells: CCE mESCs (lentiviral pRAIDRS)
Experimental: FIG. 5A is a western blot analysis depicting endogenous CHK1 (*) and AID^47-CHK1 (A-CHK1, **) in four selected clones and in parental non-infected mESCs. […] serves as a loading control. Experiment was repeated three times for clones #1 and #2, and a representative blot is presented. In FIG. 5B, A-CHK1 #2 mESCs were treated with ethanol (“Con”) or auxin (“IAA”) for 1 day. Cells were then treated with the indicated concentrations of aphidicolin (“Aph”). Equal concentrations of DMSO were applied to all conditions. The next day, cells were stained with crystal violet and plates were scanned. […] In FIG. 5C, mESC clones were pretreated with […] aphidicolin for 1 day and were then treated with auxin for the indicated time periods. Left panel: mitotic index was calculated as the percentage of H3^pS10-positive cells with 4N DNA content, measured by flow cytometry. Right panel: dot plots for A-CHK1 #2 mESCs treated with auxin for 0 or 45 minutes. Mitotic cells are gated. FIG. 5D show bright-field microscope images of cells treated as in FIG. 5C. Images show synchronous cell rounding, a feature of late mitotic cells, 2 hours following auxin treatment in aphidicolin-treated A-CHK1 #2 cells. FIG. 5E is a western blot analysis of cells treated as in FIG. 5C. Tyr15 phosphorylation of CDK1 (“CDKlpY^15”) was detected using a phospho-specific antibody. β-Actin serves as a loading control. […] Error bars represent standard deviation of three technical replicates. […]
Cells were lysed in RIPA-B buffer (20 mM Na2HPO4 pH 7.4, 150 mM NaCl and 1% Triton X-100) supplemented with Protease Inhibitor Cocktail (Roche) for 30 minutes on ice with occasional vortexing, followed by 30 minutes centrifugation at 13,000 relative centrifugal force at 4° C. […] Luminescence was detected with X-ray films, which were scanned, or using the Bio-Rad ChemiDoc MP System. […] Quantification of protein level was performed using the ImageJ software (Schneider et al., “NIH Image to ImageJ: 25 Years of Image Analysis,” Nat. Methods 9:671-675 2012), which is hereby incorporated by reference in its entirety). […]

[1] = test system: aphidicolin-treated mESCs; test: Mitotic entry after auxin in aphidicolin-treated A-CHK1 mESCs (mitotic index, flow cytometry); assay type: cell-based, mouse; conditions: A-CHK1 mESCs pretreated with aphidicolin for 1 day
Experimental: FIG. 5A is a western blot analysis depicting endogenous CHK1 (*) and AID^47-CHK1 (A-CHK1, **) in four selected clones and in parental non-infected mESCs. […] serves as a loading control. Experiment was repeated three times for clones #1 and #2, and a representative blot is presented. In FIG. 5B, A-CHK1 #2 mESCs were treated with ethanol (“Con”) or auxin (“IAA”) for 1 day. Cells were then treated with the indicated concentrations of aphidicolin (“Aph”). Equal concentrations of DMSO were applied to all conditions. The next day, cells were stained with crystal violet and plates were scanned. […] Left panel: mitotic index was calculated as the percentage of H3^pS10-positive cells with 4N DNA content, measured by flow cytometry. […] Tyr15 phosphorylation of CDK1 (“CDKlpY^15”) was detected using a phospho-specific antibody. β-Actin serves as a loading control. […]
Flow cytometry was performed on a BD LSRII machine. For GFP and mOrange fluorescence analysis, cells were trypsinized, neutralized with FBS-containing media, supplemented with […] DAPI and kept on ice. […] GFP and mOrange fluorescence intensities were detected using the fluorescein isothiocyanate (“FITC”) and DsRed channels, respectively. Background autofluorescence was measured using parental noninfected cells. […] To calculate % degradation, relative median fluorescence was subtracted from 1. […]

T1 sequence (Q7XVM8 whole entry, the tested form may be a part): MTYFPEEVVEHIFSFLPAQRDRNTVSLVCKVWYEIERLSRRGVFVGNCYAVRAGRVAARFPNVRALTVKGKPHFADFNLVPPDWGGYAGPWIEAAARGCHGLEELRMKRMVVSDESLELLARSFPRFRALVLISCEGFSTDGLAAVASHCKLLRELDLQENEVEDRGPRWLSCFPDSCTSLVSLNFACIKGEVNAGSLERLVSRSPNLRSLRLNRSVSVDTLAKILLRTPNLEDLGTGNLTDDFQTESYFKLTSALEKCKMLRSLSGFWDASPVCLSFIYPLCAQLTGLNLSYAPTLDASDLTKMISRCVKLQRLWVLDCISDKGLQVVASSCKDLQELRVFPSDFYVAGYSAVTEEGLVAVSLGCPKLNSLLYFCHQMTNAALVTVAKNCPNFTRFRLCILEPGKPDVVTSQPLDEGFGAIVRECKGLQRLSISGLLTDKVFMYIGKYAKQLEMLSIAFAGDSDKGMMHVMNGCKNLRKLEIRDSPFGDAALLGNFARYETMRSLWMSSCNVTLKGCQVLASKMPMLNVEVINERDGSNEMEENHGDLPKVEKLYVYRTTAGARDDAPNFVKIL
T1 sequence (P93830 63-109): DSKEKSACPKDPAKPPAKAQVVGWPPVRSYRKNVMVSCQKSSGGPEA

## O=C(O)Cc1c[nH]c2ccccc12 [auxin, indole-3-acetic acid]
AID^47-CHK1 (A-CHK1); aphidicolin-treated mESCs
  time of auxin-dependent depletion of CHK1: 20 min
AID^47-CHK1 (A-CHK1); pRAIDRS system, auxin-dependent protein depletion
  time for >95% degradation of CHK1: 20 to 30 min
AID^47-CHK1 (A-CHK1); selected mESC clones, western blot
  auxin-dependent degradation of A-CHK1: complete auxin-dependent degradation
[1]
  time of synchronous mitotic entry post-auxin treatment: 45 to 90 min
